Assay results taken from patent publication US20220396577A1, “NOVEL SUBSTITUTED 1,3-8-TRIAZASPIRO[4,5] DECANE-2,4-DIONE COMPOUNDS AS INDOLEAMINE 2,3-DIOXYGENASE (IDO) AND/OR TRYPTOPHAN 2,3-DIOXYGENASE (TDO) INHIBITORS” (Merck Sharp & Dohme LLC, priority 2019, published 2022).

What was measured:
Format in all cases: biochemical
CDK9 (Cyclin T1) = CDK9 (Cyclin T1) (Homo sapiens, UniProt P50750); test: Off-target kinase panel, ADAPTA: CDK9 (Cyclin T1); settings: read-out: Estimated IC50 (uM) CDK9 (Cyclin T1)
Sequence of CDK9 (Cyclin T1) (P50750 whole entry): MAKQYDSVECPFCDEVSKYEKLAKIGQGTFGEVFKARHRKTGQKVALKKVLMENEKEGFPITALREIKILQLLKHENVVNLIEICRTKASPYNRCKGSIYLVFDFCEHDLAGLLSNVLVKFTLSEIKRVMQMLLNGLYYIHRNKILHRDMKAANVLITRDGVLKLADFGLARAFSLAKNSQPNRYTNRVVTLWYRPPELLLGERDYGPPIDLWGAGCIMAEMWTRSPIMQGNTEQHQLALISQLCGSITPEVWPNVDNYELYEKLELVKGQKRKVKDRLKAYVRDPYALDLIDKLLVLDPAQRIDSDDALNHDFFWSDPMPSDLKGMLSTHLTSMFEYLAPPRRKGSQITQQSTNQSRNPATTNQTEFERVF
Sequence of CDK9 (Cyclin T1) (O60563 whole entry partner): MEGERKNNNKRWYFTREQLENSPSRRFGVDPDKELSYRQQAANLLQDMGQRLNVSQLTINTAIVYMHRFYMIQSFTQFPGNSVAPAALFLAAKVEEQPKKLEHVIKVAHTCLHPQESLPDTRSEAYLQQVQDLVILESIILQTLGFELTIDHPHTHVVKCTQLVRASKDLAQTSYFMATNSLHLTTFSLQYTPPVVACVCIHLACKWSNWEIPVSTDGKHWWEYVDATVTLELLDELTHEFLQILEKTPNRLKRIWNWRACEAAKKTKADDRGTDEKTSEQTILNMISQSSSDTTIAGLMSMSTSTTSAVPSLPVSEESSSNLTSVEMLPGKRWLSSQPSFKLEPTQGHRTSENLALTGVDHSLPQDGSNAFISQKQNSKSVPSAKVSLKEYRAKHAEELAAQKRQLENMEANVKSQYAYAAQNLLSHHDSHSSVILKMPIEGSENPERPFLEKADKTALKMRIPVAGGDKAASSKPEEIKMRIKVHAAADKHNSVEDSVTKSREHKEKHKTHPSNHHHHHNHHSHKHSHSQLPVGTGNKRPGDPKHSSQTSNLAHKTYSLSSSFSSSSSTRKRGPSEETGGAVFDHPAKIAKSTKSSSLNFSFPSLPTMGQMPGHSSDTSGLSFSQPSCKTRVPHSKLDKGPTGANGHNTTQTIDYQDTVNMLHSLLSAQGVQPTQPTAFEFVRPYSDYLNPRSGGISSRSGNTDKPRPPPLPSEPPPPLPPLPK
Text: (§1) The activity data was obtained in a panel of 265 and 264 for compounds 1-1 and CC-1, respectively, using the ZLYTE and ADAPTA assay methods indicated in the table below.
The Adapta universal kinase assay is a homogenous, fluorescent based immunoassay for the detection of ADP. In contrast to ATP depletion assays, the Adapta assay is highly sensitive to ADP formation such that a majority of the signal change occurs in the first 10-20% conversion of ATP to ADP. This makes the Adapta universal kinase assay well suited for use with low activity kinases.
The principle of the Adapta universal kinase assay is outlined below. The assay itself can be divided into two phases: a kinase reaction phase, and an ADP detection phase. In the kinase reaction phase, all components required for the kinase reaction are added to the well, and the reaction is allowed to incubate for 60 minutes. After the reaction, a detection solution consisting of a europium labeled anti-ADP antibody, an Alexa Fluor 647 labeled ADP tracer, and EDTA (to stop the kinase reaction) is added to the assay well. […]
ADP formation is determined by calculating the emission ratio from the assay well. The emission ratio is calculated by dividing the intensity of the tracer (acceptor) emission by the intensity of the Eu (donor) emission at 615 nm as shown in the equation below. […]
12. Read on fluorescence plate reader and analyze the data.

IDO1 = IDO1 (Homo sapiens, UniProt P14902); test: IDO1 Enzymatic Assay (A); settings: recombinant HIS-tagged IDO1, 40 nM; read-out: IDO enzymatic IC50, nM (A)
Sequence of IDO1 (P14902 whole entry): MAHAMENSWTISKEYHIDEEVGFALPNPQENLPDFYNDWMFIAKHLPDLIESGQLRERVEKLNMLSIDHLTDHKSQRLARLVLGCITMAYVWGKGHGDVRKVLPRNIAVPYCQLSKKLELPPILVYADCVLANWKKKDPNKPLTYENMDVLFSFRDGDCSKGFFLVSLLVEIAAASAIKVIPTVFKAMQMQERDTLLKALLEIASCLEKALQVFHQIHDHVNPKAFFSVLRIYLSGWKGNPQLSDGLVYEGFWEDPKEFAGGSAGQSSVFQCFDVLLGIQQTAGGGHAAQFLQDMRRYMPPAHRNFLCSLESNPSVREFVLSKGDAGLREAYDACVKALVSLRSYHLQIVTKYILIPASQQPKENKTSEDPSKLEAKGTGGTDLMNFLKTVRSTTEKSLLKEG
Experimental: Compounds to be tested were serially diluted in ten 3-fold steps in DMSO starting from 10 mM DMSO stocks. Compound dilutions or DMSO alone were then dispensed from the dilution plate into a Greiner black 384-well assay plate (catalog #781086) using an Echo 555 acoustic liquid handler (Labcyte). HIS-tagged IDO1 protein (Genbank #: NM_002164) was recombinantly expressed in Escherichia coli using ZYP5052 auto induction media supplemented with 500 μM delta aminolevulinic acid for 48 h at 16° C. IDO1 protein was purified using Ni^2+-affinity resin and size exclusion chromatography. Purified protein was then diluted in assay buffer (50 mM Tris pH 7.0, 1% glycerol, 20 μM methylene blue, 0.05% Tween-20, 20 mM sodium ascorbate, 100 units/mL catalase) to obtain a final IDO1 concentration of 40 nM. […] were dispensed to wells of the assay plate using a BioRAPTR liquid dispenser (Beckman Coulter). Assay plates containing compound and IDO1 enzyme were incubated at RT for 30 min. Afterwards, 10 μL of 400 μM tryptophan in assay buffer were added to each well of the assay plate using a BioRAPTR liquid dispenser. […] The resulting fluoresence was measured in an Envision plate reader (Perkin Elmer) with a 400/25 nm excitation filter and an 510/20 nm emission filter. […] Potencies were calculated by linear least squares fit to the four parameter logistic IC50 equation.

RPS6KB1 = RPS6KB1 (Homo sapiens, UniProt P23443); test: Off-target kinase panel, ZLYTE: RPS6KB1; settings: read-out: Estimated IC50 (uM) RPS6KB1
Sequence of RPS6KB1 (P23443 whole entry): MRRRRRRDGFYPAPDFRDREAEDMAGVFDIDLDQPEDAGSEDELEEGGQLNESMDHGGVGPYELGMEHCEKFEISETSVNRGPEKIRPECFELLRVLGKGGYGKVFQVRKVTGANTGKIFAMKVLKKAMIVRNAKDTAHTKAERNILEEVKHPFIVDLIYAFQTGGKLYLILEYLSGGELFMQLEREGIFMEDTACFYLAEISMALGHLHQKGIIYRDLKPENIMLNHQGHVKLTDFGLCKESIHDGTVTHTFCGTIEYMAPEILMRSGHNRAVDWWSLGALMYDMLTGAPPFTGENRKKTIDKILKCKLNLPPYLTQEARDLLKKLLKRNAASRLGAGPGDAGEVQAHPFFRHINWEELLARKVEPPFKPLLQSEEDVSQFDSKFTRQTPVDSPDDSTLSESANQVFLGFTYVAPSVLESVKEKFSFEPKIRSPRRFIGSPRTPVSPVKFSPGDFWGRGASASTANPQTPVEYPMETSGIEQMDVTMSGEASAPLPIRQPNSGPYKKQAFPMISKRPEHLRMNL
Text: as §1
The ZLYTE biochemical assay employs a fluorescence-based, coupled-enzyme format and is based on the differential sensitivity of phosphorylated and non-phosphorylated peptides to proteolytic cleavage. The peptide substrate is labeled with two fluorophores—one at each end—that make up a Fluorescence Resonance Energy Transfer (FRET) pair.
In the primary reaction, the kinase transfers the gamma-phosphate of ATP to a single tyrosine, serine or threonine residue in a synthetic FRET-peptide. In the secondary reaction, a site-specific protease recognizes and cleaves non-phosphorylated FRET-peptides. Phosphorylation of FRET-peptides suppresses cleavage by the Development Reagent. […] A ratiometric method, which calculates the ratio (the Emission Ratio) of donor emission to acceptor emission after excitation of the donor fluorophore at 400 nm, is used to quantitate reaction progress, as shown in the equation below. […]
Both cleaved and uncleaved FRET-peptides contribute to the fluorescence signals and therefore to the Emission Ratio. The extent of phosphorylation of the FRET-peptide can be calculated from the Emission Ratio. […]
10. Read on fluorescence plate reader and analyze the data.

Structure (SMILES): O=C1NC(=O)C2(CCN(c3cc(Cl)cc4[nH]ncc34)CC2)N1 [CC-1]
- IC50 (CDK9 (Cyclin T1)): 0.15 µM
- IC50 (IDO1): 113 nM
- IC50 (RPS6KB1): 1.7 µM

Structure (SMILES): C[C@@H]1CN(c2cc(Br)cc3[nH]ncc23)CC[C@]12NC(=O)NC2=O (single isomer, unassigned) [Compound 1-1]
- IC50 (CDK9 (Cyclin T1)): > 2 µM
- IC50 (IDO1): 129 nM
- IC50 (RPS6KB1): 1.9 µM
